US4246343A, “Microbial detection and enumeration method and apparatus” (University of Virginia and National Aeronautics & Space …, priority 1979, dated 1981)
Where a name gives a salt, the structure may show the parent alone. Read-outs that look alike come from different tables or passages of the source.

Assays:
S. epidermidis (ATCC) = experiment: Electroanalytically determined MIC, gram-positive bacteria; format: cell-based, Staphylococcus epiderdimis ATCC 14990; settings: Staphylococcus epidermidis
Source text: (§1) Identical lots of media and antimicrobial agents were used in the susceptibility tests performed. The media used were trypticase soy agar (TSA) and TSB from Baltimore Biological Laboratories (BBL), Cockeysville, Maryland. The 12 antimicrobial agents used in the experiments, which were chosen on the basis of their clinical usefulness, were laboratory reference standards including the following antibiotics: penicillin G potassium, caphalothin sodium, tobramycin, vancomycin hydrochloride and streptomycin sulfate obtained from Eli Lilly and Co.; tetracycline and carbenicillin obtained from Pfizer Laboratories; ampicillin and sodium nafcillin from Wyeth Laboratories; kanamycin and methicillin from Bristol Laboratories; gentamicin from Schering.
(§2) The following cultures were obtained from Hoffmann-LaRoche, Inc. and were derived from the American Type Culture Collection (ATCC) organisms as indicated: Escherichia coli, "Seattle Strain" ATCC 25922, Klebsiella pneumoniae ATCC 27736; Pseudomonas aeruginosa, ATCC 9721. These bacteria are gram negative bacteria. The following bacteria are gram positive: Staphylococcus aureus, "Seattle Strain" ATCC 25923; Staphylococcus epiderdimis ATCC 14990; and Streptococcus pyogenes, ATCC 10389. In addition, clinical specimens of these same six organisms were obtained from sensitivity isolates from the University of Virginia Hospital Department of Clinical Pathology Bacteriology Section. These organisms, both pathogenic and non-pathogenic (Staphylococcus epidermidis), were chosen because they are some of the most frequently encountered organisms in clinical isolates.
(§3) Inocula were prepared by making a 100-fold dilution×2 of an overnight TSB culture of the organism to be tested in sterile TSB prewarmed to 35° C. Thus, the total dilution of overnight stock was 10^-4. From the 10^-4 series, 0.3 ml was transferred to a test tube (Falcon, disposable #2057) containing 2.7 ml of TSB if the growth control, or 2.6 ml of TSB plus 0.1 ml of a particular concentration of an appropriate antibiotic to be tested. The antibiotic was weighed on an analytical balance, according to each agent's activity standard, and diluted with sterile distilled water in a volumetric flask to achieve a stock solution of 1000 mcg/ml which was then frozen in small aliquots. Further dilutions as necessary for susceptibility testing were also achieved through the addition of sterile distilled water to this stock concentration. Viable counts were made by plating appropriate dilutions from the 10^-4 series on TSA and counting colonies after 24 hours incubation at 35° C. Viable counts were also made on each microorganism at the time of MDC and again at the end of the 24 hour test period to confirm the minimum inhibitory concentration (MIC).
(§4) The experimental apparatus used in this study to monitor the inhibition of growth due to the addition of antibiotics consisted of test tubes, up to and including 8, size 17×100 mm, each containing a sterilized (by boiling) Pt-SCE combination electrode (Sargent-Welch, S-30101-15), plus TSB, microorganisms, and antibiotic where appropriate, positioned in a 35° C. heating block. Leads from the electrode were connected to a high impedance (greater than 10^8 ohms) potentiometer, or voltage following device, which in turn was connected to a strip chart recorder (Hewlett-Packard type 680M). Microbial growth was measured by an increase in voltage in the negative direction with time as recorded on the strip chart recorder.
(§5) FIG. 12 is a stripchart recording of the antimicrobial response curve of a four channeled expriment involving a clinical specimen of the non-hydrogenproducing, Gram-positive bacteria Staphylococcus epidermidis treated with 0.012, 0.5 and 1.0 mcg/ml of the antibiotic ampicillin as shown in curves B, C and D respectively. […]

S. aureus (clinical) = experiment: as above; format: cell-based; settings: Staphylococcus aureus
Source text: as §1, §2, §3, §4, §5

[1] = system: S. epidermidis (clinical); experiment: Electroanalytically determined MIC / antimicrobial response curve, gram-positive bacteria; format: cell-based, Staphylococcus epidermidis; settings: for MIC: Staphylococcus epidermidis
Source text: as §1, §2, §3, §4, §5

S. aureus (ATCC) = experiment: Electroanalytically determined MIC, gram-positive bacteria; format: cell-based, "Seattle Strain" ATCC 25923; settings: Staphylococcus aureus
Source text: as §1, §2, §3, §4, §5

P. aeruginosa (ATCC) = experiment: Electroanalytically determined MIC, gram-negative bacteria; format: cell-based, Pseudomonas aeruginosa, ATCC 9721
Source text: as §1, §2, §3, §4, §5

E. coli (clinical) = experiment: as above; format: cell-based, Escherichia coli
Source text: as §1, §2, §3, §4, §5

K. pneumoniae (ATCC) = experiment: Electroanalytically determined MIC / antimicrobial response curve, gram-negative bacteria; format: cell-based, Klebsiella pneumoniae ATCC 27736
Source text: as §1, §2, §3, §4, §5

P. aeruginosa (clinical) = experiment: Electroanalytically determined MIC, gram-negative bacteria; format: cell-based, Pseudomonas aeruginosa
Source text: as §1, §2, §3, §4, §5

E. coli (ATCC) = experiment: as above; format: cell-based, Escherichia coli, "Seattle Strain" ATCC 25922
Source text: as §1, §2, §3, §4, §5

K. pneumoniae (clinical) = experiment: as above; format: cell-based, Klebsiella pneumoniae
Source text: as §1, §2, §3
as §4, with “recorder. […]” for “recorder.”

S. pyogenes (ATCC) = experiment: Electroanalytically determined MIC, gram-positive bacteria; format: cell-based, ATCC 10389; settings: Streptococcus pyogenes, 24 h
Source text: as §1, with “Schering. […]” for “Schering.”
The experimental apparatus used in this study to monitor the inhibition of growth due to the addition of antibiotics consisted of test tubes, up to and including 8, size 17×100 mm, each containing a sterilized (by boiling) Pt-SCE combination electrode (Sargent-Welch, S-30101-15), plus TSB, microorganisms, and antibiotic where appropriate, positioned in a 35° C. heating block. […] Microbial growth was measured by an increase in voltage in the negative direction with time as recorded on the strip chart recorder. […]

S. pyogenes (clinical) = experiment: as above; format: cell-based; settings: Streptococcus pyogenes, 24 h
Source text: as §1, §2, §3, §4, §5

[2] = S. epidermidis (ATCC), TSB, 35° C., 24 hour test period, read-out: MIC
[3] = Escherichia coli, E. coli (clinical), TSB, 35° C., 24 hour test period, read-out: MIC
[4] = Klebsiella pneumoniae, K. pneumoniae (ATCC), TSB, 35° C., 24 hour test period, read-out: MIC
[5] = S. aureus (clinical), TSB, 35° C., 24 hour test period, read-out: MIC
[6] = Escherichia coli, E. coli (ATCC), TSB, 35° C., 24 hour test period, read-out: MIC
[7] = S. epidermidis (clinical), TSB, 35° C., 24 hour test period, read-out: MIC
[8] = S. aureus (ATCC), TSB, 35° C., 24 hour test period, read-out: MIC
[9] = Pseudomonas aeruginosa, P. aeruginosa (ATCC), TSB, 35° C., 24 hour test period, read-out: MIC
[10] = Pseudomonas aeruginosa, P. aeruginosa (clinical), TSB, 35° C., 24 hour test period, read-out: MIC

Molecule | MIC (S. epidermidis (ATCC); 24 h) [µg/mL] | MIC (S. aureus (clinical); 24 h) [µg/mL] | MIC ([1]; 24 h) [µg/mL] | MIC (S. aureus (ATCC); 24 h) [µg/mL] | MIC (P. aeruginosa (ATCC); Pseudomonas aeruginosa, 24 h) [µg/mL] | MIC (P. aeruginosa (clinical); Pseudomonas aeruginosa, 24 h) [µg/mL] | MIC (E. coli (clinical); Escherichia coli, 24 h) [µg/mL] | MIC (K. pneumoniae (ATCC); Klebsiella pneumoniae, 24 h) [µg/mL] | MIC (E. coli (ATCC); Escherichia coli, 24 h) [µg/mL] | other results
CC1(C)S[C@@H]2[C@H](NC(=O)Cc3ccccc3)C(=O)N2[C@H]1C(=O)O [Pen G, penicillin G potassium] | 0.08 to 0.1 | 0.05 | 0.1 | 0.05 |  |  |  |  |  | 
CC1(C)S[C@@H]2[C@H](NC(=O)[C@H](N)c3ccccc3)C(=O)N2[C@H]1C(=O)O [Amp, ampicillin] |  |  |  |  | > 128 | > 128 |  |  |  | MIC (S. epidermidis (ATCC); [2]): 1 µg/mL; MIC (E. coli (clinical); [3]): 6 µg/mL; MIC (K. pneumoniae (ATCC); [4]): 32 µg/mL; MIC (S. aureus (clinical); [5]): 0.12 µg/mL; MIC (E. coli (ATCC); [6]): 4 µg/mL; growth inhibition (antimicrobial response curve, FIG. 12) ([1]; S. epidermidis clinical specimen, 0.012, 0.5 and 1.0 mcg/ml): increasingly inhibited; MIC [1, 7]: 0.8 to 1 µg/mL; MIC (S. aureus (ATCC); [8]): 0.12 to 0.6 µg/mL
COc1cccc(OC)c1C(=O)N[C@@H]1C(=O)N2[C@@H]1SC(C)(C)[C@@H]2C(=O)O [Meth, methicillin] |  |  |  |  |  |  |  |  |  | MIC (S. epidermidis (ATCC); [2]): 0.5 to 1 µg/mL; MIC (S. aureus (clinical); [5]): 0.7 µg/mL; MIC [1, 7]: 0.5 to 1 µg/mL; MIC (S. aureus (ATCC); [8]): 0.7 µg/mL
NC[C@H]1O[C@H](O[C@H]2[C@H](O)[C@@H](O[C@H]3O[C@H](CO)[C@@H](O)[C@H](N)[C@H]3O)[C@H](N)C[C@@H]2N)[C@H](N)C[C@@H]1O [Tobra, tobramycin] |  |  |  |  |  |  |  |  |  | MIC (P. aeruginosa (ATCC); [9]): 4 µg/mL; MIC (P. aeruginosa (clinical); [10]): 8 µg/mL
CCOc1ccc2ccccc2c1C(=O)N[C@@H]1C(=O)N2[C@@H]1SC(C)(C)[C@@H]2C(=O)O [Naf, sodium nafcillin] |  |  |  |  |  |  |  |  |  | MIC (S. epidermidis (ATCC); [2]): 0.5 to 1 µg/mL; MIC (S. aureus (clinical); [5]): 0.5 µg/mL; MIC [1, 7]: 0.5 to 1 µg/mL; MIC (S. aureus (ATCC); [8]): 0.5 µg/mL
NC[C@H]1O[C@H](O[C@H]2[C@H](O)[C@@H](O[C@H]3O[C@H](CO)[C@@H](O)[C@H](N)[C@H]3O)[C@H](N)C[C@@H]2N)[C@H](O)[C@@H](O)[C@@H]1O [Kana, kanamycin] | 0.4 | 0.5 to 1 | 0.6 | 0.2 | 32 to 64 | 64 | 4 | 3 | 3 | MIC (K. pneumoniae (clinical); Klebsiella pneumoniae, 24 h): 4 µg/mL
CN(C)[C@@H]1C(=O)C(C(N)=O)=C(O)[C@@]2(O)C(=O)C3=C(O)c4c(O)cccc4[C@@](C)(O)[C@H]3C[C@@H]12 [Tetra, tetracycline] | 1 to 2 | 2 | 2 | 2 | 64 | 64 | 4 | 5 to 6 | 1 | MIC (K. pneumoniae (clinical); Klebsiella pneumoniae, 24 h): 5 to 6 µg/mL
CC(=O)OCC1=C(C(=O)O)N2C(=O)[C@@H](NC(=O)Cc3cccs3)[C@H]2SC1 [Ceph, cephalothin] | 0.1 | 0.8 to 1.6 | 0.5 to 1 | 0.15 to 0.2 | > 360 | > 360 | 9 | 1 | 8 | growth inhibition (antimicrobial response curve, FIG. 13) (K. pneumoniae (ATCC); K. pneumoniae ATCC, 0.3, 0.4, 0.5, 1.0 and 2.0 mcg/ml): increasingly inhibited
CN[C@H](CC(C)C)C(=O)N[C@H]1C(=O)N[C@@H](CC(N)=O)C(=O)N[C@H]2C(=O)N[C@H]3C(=O)N[C@H](C(=O)N[C@H](C(=O)O)c4cc(O)cc(O)c4-c4cc3ccc4O)[C@H](O)c3ccc(c(Cl)c3)Oc3cc2cc(c3O[C@@H]2O[C@H](CO)[C@@H](O)[C@H](O)[C@H]2O[C@H]2C[C@](C)(N)[C@H](O)[C@H](C)O2)Oc2ccc(cc2Cl)[C@H]1O [Vanco, vancomycin hydrochloride] | 1.5 | 2 | 2 to 3 | 1 |  |  |  |  |  | MIC (S. pyogenes (ATCC)): 0.1 to 0.5 µg/mL; MIC (S. pyogenes (clinical)): 0.5 µg/mL
CC1(C)S[C@@H]2[C@H](NC(=O)C(C(=O)O)c3ccccc3)C(=O)N2[C@H]1C(=O)O (stereo partly shown) [Carb, carbenicillin] |  |  |  |  |  |  |  |  |  | MIC (K. pneumoniae (clinical); Klebsiella pneumoniae, K. pneumoniae (clinical), TSB, 35° C., 24 hour test period, read-out: MIC): > 128 µg/mL; MIC (P. aeruginosa (ATCC); [9]): 64 µg/mL; MIC (E. coli (clinical); [3]): 5 µg/mL; MIC (K. pneumoniae (ATCC); [4]): > 128 µg/mL; MIC (P. aeruginosa (clinical); [10]): 64 µg/mL; MIC (E. coli (ATCC); [6]): 4 µg/mL
[H]/N=C(/N)N[C@H]1[C@H](O)[C@@H](O)[C@H](O[C@@H]2O[C@@H](C)[C@](O)(C=O)[C@H]2O[C@@H]2O[C@@H](CO)[C@H](O)[C@@H](O)[C@@H]2NC)[C@@H](N/C(N)=N\[H])[C@@H]1O [Strep, streptomycin sulfate] | 4 | 8 | 4 to 6 | 8 |  |  | 9 | 5 to 6 | 9 | MIC (K. pneumoniae (clinical); Klebsiella pneumoniae, 24 h): 6 µg/mL; MIC (S. pyogenes (ATCC)): 0.1 µg/mL; MIC (S. pyogenes (clinical)): 0.1 µg/mL
gentamicin |  |  |  |  |  |  |  |  |  | MIC (K. pneumoniae (clinical); K. pneumoniae (clinical), TSB, 35° C., 24 hour test period): 0.5 µg/mL; MIC (P. aeruginosa (ATCC); P. aeruginosa (ATCC), TSB, 35° C., 24 hour test period): 2.0 µg/mL; MIC (E. coli (clinical); E. coli (clinical), TSB, 35° C., 24 hour test period): 1.0 µg/mL; MIC (K. pneumoniae (ATCC); K. pneumoniae (ATCC), TSB, 35° C., 24 hour test period): 0.5 µg/mL; MIC (P. aeruginosa (clinical); P. aeruginosa (clinical), TSB, 35° C., 24 hour test period): 4.0 µg/mL; MIC (E. coli (ATCC); E. coli (ATCC), TSB, 35° C., 24 hour test period): 0.5 µg/mL
